What was measured:
[1] = system: A549 lung cancer cell line; assay: TGF-β-induced epithelial mesenchymal transition of A549 cells on MicroMatrix ECM array (e-cadherin / vimentin staining); format: cell-based, human
Description: Packages containing products which embody present invention (MicroMatrix™ slides) were removed from −20° C. and brought to room temperature (RT). Using sterile techniques, 4 MicroMatrix™ slides were removed from packaging and put into a 4-chamber slide tray. A549 cells (ATCC, Rockville, Md.) were cultured according to manufacturer's protocol in complete medium of DMEM containing 10% FBS and antibiotics (Life Technology, CA) in standard tissue culture treated T-75 flasks (Corning).
Cells were trypsinized with EDTA for 5 minutes and neutralized with 10 ml of complete medium. Neutralized cell suspensions were put into a 50 ml conical tube and centrifuged for 6 minutes at 1100 rpm. Five milliliters of complete medium containing 5×10^5 cells was added to each of 4 identical MicroMatrix™ slides in the slide tray. The tray was placed in a 37° C. incubator with 5% CO2 and cells were allowed to attach to ECM spots overnight (14 hrs).
Unattached cells and media were aspirated from the slides and 5 ml of media containing 1% FBS with or without 5 ng/ml of TGF-β were added to each chamber. After 24 hrs, media was aspirated from the chamber and 5 ml of 4% para-formaldehyde (PFA) in 1×PBS (fixation buffer) was added to each slide for 10 minutes at RT.
Fixation buffer was aspirated from chambers and fixed slides were stained for nuclei, e-cadherin and vimentin expression. Briefly, mouse anti-human e-cadherin antibody (BD, CA) and rabbit anti-human vimentin (Cell Signaling Technology) antibody were added to each of 4 slides at a 1:100 dilution in PBS at RT for 3 hours. […]
Cell adhesion was determined by the number of nuclei present on a spot. […] Cells adhered to ECM compositions that met the 25 cell/spot criteria were then analyzed for e-cadherin and vimentin expression using the same Bioapplication software. A ring was formed around segmented objects (nuclei) and fluorescence measurements for secondary channels were captured. Average intensities of e-cadherin and vimentin were calculated and normalized by cells per spot.

[2] = system: MCF-7 breast carcinoma cells; assay: Paclitaxel multiparameter cytotoxicity in MCF-7 cells attached to ECM spots of the array (Cellomics Multiparameter Cytotoxicity 3 kit); format: cell-based, human; conditions: cells grown on matrix of collagen IV, collagen V and fibronectin in equal concentrations, compared with fibronectin alone
Description: The human breast adenocarcinoma cell line MCF-7 was purchased from American Type Culture Collection (ATCC). Cells were cultured in minimal essential medium (DMEM), supplemented with 10% FBS and antibiotics (100 IU/ml of penicillin G), then incubated at 37° C. in a humidified atmosphere of 5% CO2. […] MCF-7 cells were seeded into 4 well plates containing an exemplary microarray slide according to the present invention at a density of about 0.1×10^6 cells/ml in 5 ml complete medium (0.5×10^6 cells/slide, total 8 slides) and cultured at 37° C. After 7 h of incubation, non adherent cells were removed and the slide was washed 1× with complete culture medium. New media with varying concentrations of paclitaxel was added ranging from 0 nM-3 uM (0 nM, 3 nM, 10 nM, 30 nM, 100 nM, 300 nm, 1 μM, 3 μM). Cells were incubated for about 16 h at 37° C. Slides were processed using the protocol provided by the manufacturer of the Cellomics Multiparameter Cytotoxicity 3 kit, employing the reagents included in the kit. […] The resulting slides were kept protected from light and analyzed within about 24 h. […] Compartmental Analysis BioApplication (Cellomics) software was used to quantify fluorescent signal. […]

[3] = A549 on certain combinations of ECMs, 24 hrs, 5 ng/ml TGF-β, compared with other ECM compositions

Compound	e-cadherin expression (epithelial marker) [1, 3]	vimentin expression (mesenchymal marker) [1, 3]	A549 cell attachment ([1]; certain ECM compositions that promote attachment without TGF-β, upon addition of TGF-β)	cytotoxic response of MCF-7 cells to paclitaxel (same cytotoxicity parameters) [2]
TGF-β	decreases in e-cadherin	increases in vimentin expression	cell detachment is observed	–
CC(=O)O[C@H]1C(=O)[C@@]2(C)[C@H]([C@H](OC(=O)c3ccccc3)[C@]3(O)C[C@H](OC(=O)[C@H](O)[C@@H](NC(=O)c4ccccc4)c4ccccc4)C(C)=C1C3(C)C)[C@]1(OC(C)=O)CO[C@@H]1C[C@@H]2O [paclitaxel, Paclitaxel]	–	–	–	maintain a resistance to paclitaxel

From patent publication US20140038847A1, “SCREENING AND CULTURING DEVICE AND METHODS FOR THE USE THEREOF” (Microstem, Inc., priority 2010, published 2014)
